Source: patent publication US9260408B2, “Dihydroquinoline-2-one derivatives” (Hoffmann-La Roche Inc., priority 2011, dated 2016)
Where a name gives a salt, the structure may show the parent alone.

Legend:
human CYP11B2 = target: T1, human CYP11B2 (Homo sapiens, UniProt P19099); test: G-402 cellular enzyme assay, human CYP11B2 (aldosterone release, HTRF); assay type: cell-based; conditions: G-402 cells expressing human CYP11B2; 1 μM Deoxycorticosterone
T1 construct: expressed in transfected cells
T1 sequence (P19099 25-503): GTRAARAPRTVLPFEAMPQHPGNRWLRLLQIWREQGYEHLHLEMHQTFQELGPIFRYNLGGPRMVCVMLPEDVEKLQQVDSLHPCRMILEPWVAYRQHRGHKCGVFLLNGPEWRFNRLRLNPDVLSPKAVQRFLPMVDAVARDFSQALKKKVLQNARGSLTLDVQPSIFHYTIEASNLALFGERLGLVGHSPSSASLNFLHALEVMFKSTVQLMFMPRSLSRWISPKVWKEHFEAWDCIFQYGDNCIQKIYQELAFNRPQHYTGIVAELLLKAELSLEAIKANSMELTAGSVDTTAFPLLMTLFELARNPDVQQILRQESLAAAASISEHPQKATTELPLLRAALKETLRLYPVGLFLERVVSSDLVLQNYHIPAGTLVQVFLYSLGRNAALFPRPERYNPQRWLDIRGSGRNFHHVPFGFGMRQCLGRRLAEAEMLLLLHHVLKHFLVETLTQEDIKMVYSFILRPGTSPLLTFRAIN
Procedure, shortened: (§1)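 EC50 comes from least-squares fitting of a 4-parameter MMF curve to steroid product levels, measured by HTRF as aldosterone for CYP11B2 or cortisol for CYP11B1. Stably transfected G-402 host cells were given substrate (1 μM deoxycorticosterone or deoxycortisol, respectively) with inhibitor for 16 h in medium with 2.5% charcoal-treated FCS.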

human CYP11B1 = target: T2, human CYP11B1 (Homo sapiens, UniProt P15538); test: G-402 cellular enzyme assay, human CYP11B1 (cortisol release, HTRF); assay type: cell-based; conditions: G-402 cells expressing human CYP11B1; 1 μM Deoxycortisol
T2 construct: expressed in transfected cells
T2 sequence (P15538 25-503): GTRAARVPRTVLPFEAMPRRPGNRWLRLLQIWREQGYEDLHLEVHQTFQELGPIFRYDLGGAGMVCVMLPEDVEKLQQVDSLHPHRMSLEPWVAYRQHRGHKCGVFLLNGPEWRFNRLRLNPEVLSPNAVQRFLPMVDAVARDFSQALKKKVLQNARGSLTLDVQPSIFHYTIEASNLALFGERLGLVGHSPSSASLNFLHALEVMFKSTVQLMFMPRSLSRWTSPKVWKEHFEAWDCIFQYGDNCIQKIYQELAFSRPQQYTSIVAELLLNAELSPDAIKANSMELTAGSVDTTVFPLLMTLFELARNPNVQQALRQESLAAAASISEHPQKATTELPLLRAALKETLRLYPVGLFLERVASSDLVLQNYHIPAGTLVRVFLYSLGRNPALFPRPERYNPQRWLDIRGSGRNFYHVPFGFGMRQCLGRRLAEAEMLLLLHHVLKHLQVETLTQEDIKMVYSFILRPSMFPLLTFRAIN
Procedure, shortened: as §1

EC50 (human CYP11B2) [nM]	EC50 (human CYP11B1) [nM]	SMILES
42	879	CN(Cc1cncc(-c2cc(Cl)c3c(c2)CCC(=O)N3)c1)C(=O)c1ncccc1Cl [Example 216, 3-Chloro-pyridine-2-carboxylic acid [5-(8-chloro-2-oxo-1,2,3,4-tetrahydro-quinolin-6-yl)-pyridin-3-ylmethyl]-methyl-amide]
162	7540	CCS(=O)(=O)NCc1cncc(-c2cc(Cl)c3c(c2)CCC(=O)N3C)c1 [Example 209, Ethanesulfonic acid [5-(8-chloro-1-methyl-2-oxo-1,2,3,4-tetrahydro-quinolin-6-yl)-pyridin-3-ylmethyl]-amide]
172	> 3000	CC(C)[C@H](CO)Nc1cncc(-c2ccc3c(c2)CCC(=O)N3C)n1 [Example 31, 6-[6-((R)-1-Hydroxymethyl-2-methyl-propylamino)-pyrazin-2-yl]-1-methyl-3,4-dihydro-1H-quinolin-2-one]
58	750	CN1C(=O)CCc2cc(-c3cncc(CN4CCCC4=O)c3)ccc21 [Example 18]
8	453	CN1C(=O)CCc2cc(-c3cncc(O[C@@H]4CCN(C(=O)OC(C)(C)C)C4)c3)ccc21 [Example 53, (R)-3-[5-(1-Methyl-2-oxo-1,2,3,4-tetrahydro-quinolin-6-yl)-pyridin-3-yloxy]-pyrrolidine-1-carboxylic acid tert-butyl ester]
23	613	Cc1cc(F)cc(C)c1C(=O)NCc1cncc(-c2ccc3c(c2)CCC(=O)N3C)c1 [Example 93]
7	442	CCS(=O)(=O)NC(C)c1cncc(-c2cc3c(cc2F)N(C)C(=O)CC3)c1 (single isomer, unassigned) [Example 190, Ethanesulfonic acid {(R or S)-1-[5-(7-fluoro-1-methyl-2-oxo-1,2,3,4-tetrahydro-quinolin-6-yl)-pyridin-3-yl]-ethyl}-amide]
47	589	CN1C(=O)CCc2cc(-c3cncc(CNS(=O)(=O)C4CC4)c3)ccc21 [Example 155, Cyclopropanesulfonic acid [5-(1-methyl-2-oxo-1,2,3,4-tetrahydro-quinolin-6-yl)-pyridin-3-ylmethyl]-amide]
34	526	CN1C(=O)CCc2cc(-c3cncc(CNC(=O)c4coc(C(F)(F)F)c4)c3)ccc21 [Example 84]
24	2920	CCC(=O)NC(C)c1cncc(-c2cc3c(cc2F)N(C)C(=O)CC3)c1C (single isomer, unassigned) [Example 264, N-{(R or S)-1-[5-(7-Fluoro-1-methyl-2-oxo-1,2,3,4-tetrahydro-quinolin-6-yl)-4-methyl-pyridin-3-yl]ethyl}-propionamide]
4	682	CN1C(=O)CCc2cc(-c3cncc(CNC(=O)c4ncccc4Cl)c3)ccc21 [Example 118, 3-Chloro-pyridine-2-carboxylic acid [5-(1-methyl-2-oxo-1,2,3,4-tetrahydro-quinolin-6-yl)-pyridin-3-ylmethyl]-amide]
3	154	CN1C(=O)CCc2cc(-c3cncc(CNC(=O)c4cnc(Cl)cn4)c3)ccc21 [Example 125]
350	33700	CN1C(=O)CCc2cc(-c3cncc(O[C@@H]4CCNC4)c3)ccc21 [Example 68, 1-Methyl-6-[5-((R)-pyrrolidin-3-yloxy)-pyridin-3-yl]-3,4-dihydro-1H-quinolin-2-one hydrochloride]
10	120	CN1C(=O)CCc2cc(-c3cncc(OCCNC(=O)OC(C)(C)C)c3)ccc21 [Example 39, {2-[5-(1-Methyl-2-oxo-1,2,3,4-tetrahydro-quinolin-6-yl)-pyridin-3-yloxy]-ethyl}-carbamic acid tert-butyl ester]
43	493	Cc1nnc(C(=O)NCc2cncc(-c3ccc4c(c3)CCC(=O)N4C)c2)o1 [Example 80]
113	716	CCS(=O)(=O)N1CCC[C@H](Oc2cncc(-c3ccc4c(c3)CCC(=O)N4C)c2)C1 [Example 160, 6-[5-((S)-1-Ethanesulfonyl-piperidin-3-yloxy)-pyridin-3-yl]-1-methyl-3,4-dihydro-1H-quinolin-2-one]

EC50 (human CYP11B2) [nM]	EC50 (human CYP11B1) [nM]	SMILES
8	121	Cc1cccc(C(=O)NCc2cncc(-c3ccc4c(c3)CCC(=O)N4C)c2)n1 [Example 117]
29	1260	CN1C(=O)CCc2cc(-c3cncc(CN[S@+]([O-])C(C)(C)C)c3Cl)ccc21 [Example 217, (R)-2-Methyl-propane-2-sulfinic acid [4-chloro-5-(1-methyl-2-oxo-1,2,3,4-tetrahydro-quinolin-6-yl)-pyridin-3-ylmethyl]-amide]
12	169	CN1C(=O)CCc2cc(-c3cncc(CN4CCCS4(=O)=O)c3)ccc21 [Example 179, 6-[5-(1,1-Dioxo-1λ^6-isothiazolidin-2-ylmethyl)-pyridin-3-yl]-1-methyl-3,4-dihydro-1H-quinolin-2-one]
7	688	CN1C(=O)CCc2cc(-c3cncc(CNC(=O)c4cnn(C)c4)c3)c(F)cc21 [Example 175, 1-Methyl-1H-pyrazole-4-carboxylic acid [5-(7-fluoro-1-methyl-2-oxo-1,2,3,4-tetrahydro-quinolin-6-yl)-pyridin-3-ylmethyl]-amide]
6	302	CCS(=O)(=O)N(C)Cc1cncc(-c2ccc3c(c2)CCC(=O)N3C)c1 [Example 182, Ethanesulfonic acid methyl-[5-(1-methyl-2-oxo-1,2,3,4-tetrahydro-quinolin-6-yl)-pyridin-3-ylmethyl]-amide]
633	9290	CCOCCN(Cc1cncc(-c2ccc3c(c2)CCC(=O)N3C)c1)S(=O)(=O)CC [Example 185, Ethanesulfonic acid (2-ethoxy-ethyl)-[5-(1-methyl-2-oxo-1,2,3,4-tetrahydro-quinolin-6-yl)-pyridin-3-ylmethyl]-amide]
11	1500	CCC(=O)N1CC[C@H](Oc2cncc(-c3ccc4c(c3)CCC(=O)N4C)c2)C1 [Example 90]
6	691	Cc1c(CN[S@+]([O-])C(C)(C)C)cncc1-c1cc2c(cc1F)N(C)C(=O)CC2 [Example 225, (R)-2-Methyl-propane-2-sulfinic acid [5-(7-fluoro-1-methyl-2-oxo-1,2,3,4-tetrahydro-quinolin-6-yl)-4-methyl-pyridin-3-ylmethyl]-amide]
14	1440	Cc1noc(C)c1C(=O)NCCOc1cncc(-c2ccc3c(c2)CCC(=O)N3C)c1 [Example 102]
3	81	CN1C(=O)CCc2cc(-c3cncc(CNC(=O)c4nc(Cl)ccc4Cl)c3)ccc21 [Example 116]
4	460	CCC(=O)N[C@H]1CC[C@H](Oc2cncc(-c3ccc4c(c3)CCC(=O)N4C)c2)CC1 [Example 144]
30	1340	CCS(=O)(=O)NCc1cncc(-c2ccc3c(c2F)CCC(=O)N3C)c1 [Example 210, Ethanesulfonic acid [5-(5-fluoro-1-methyl-2-oxo-1,2,3,4-tetrahydro-quinolin-6-yl)-pyridin-3-ylmethyl]-amide]
170	3700	CCS(=O)(=O)Nc1cncc(-c2ccc3c(c2)CCC(=O)N3C)c1 [Example 1, Ethanesulfonic acid [5-(1-methyl-2-oxo-1,2,3,4-tetrahydro-quinolin-6-yl)-pyridin-3-yl]-amide]
36	2860	Cc1noc(C)c1C(=O)NCc1cncc(-c2ccc3c(c2)CCC(=O)N3C)c1C [Example 223, 3,5-Dimethyl-isoxazole-4-carboxylic acid [4-methyl-5-(1-methyl-2-oxo-1,2,3,4-tetrahydro-quinolin-6-yl)-pyridin-3-ylmethyl]-amide]
1	7	CC(NC(=O)c1ncccc1Cl)c1cncc(-c2ccc3c(c2)CCC(=O)N3C)c1 (single isomer, unassigned) [Example 230, 3-Chloro-pyridine-2-carboxylic acid {(R or S)-1-[5-(1-methyl-2-oxo-1,2,3,4-tetrahydro-quinolin-6-yl)-pyridin-3-yl]-ethyl}-amide]
